Assay results as given in patent US11931372B2, “Pharmaceutical composition containing pentacyclic triterpenoids” (SPV TIMSER, S.A.P.I. DE C.V., priority 2021, dated 2024).
Where two headings read alike, the source gives them in different places.

Experiments:
[1] = Pharmacokinetic study in healthy volunteers, inhaled route by nebulizer; type: in vivo, human; details: GA by inhalation, FIGS. 13 and 14
Protocol: Alternative tests were conducted to verify the synergistic behavior of the compositions of interest. For this reason, the results of pharmacokinetic studies are described and disclosed herein below. The study was based on the application of different versions of the herein claimed pharmaceutical composition to healthy volunteers by the inhaled route of administration, by means of a nebulizer device. The volunteers were given the drug once every 24 hours for three days. In addition, blood samples were taken from them at different time points. These samples were analyzed to quantify glycyrrhizinic acid (GA) and Enoxolone (EN) contents through the mass coupled HPLC methodology. […]
Blood samples of 5 mL were taken from each of the individuals at 30 minutes and at 1, 2, 3, 6, 12, 24, 48, 72 and 96 hours after drug administration. Then, the AG and EN concentrations in these blood samples were determined using the mass coupled HPLC methodology. In all cases, both components were quantified.
The following tables denote pharmacokinetic results (Area Under the Curve (AUC)) of the two drugs assessed (GA and EN). The Area Under the Curve (AUC) is a parameter related to the drug quantity to which the body has been exposed. […] The AUC was calculated using the R programming language within the “PK” software bundle. […]

[2] = system: murine respiratory tract tissue; assay: Toxicity and irritability assay by the inhaled route in murine rodents, histopathological lesion score; details: for Degenerative: Alveolar lesion score / Degenerative: Bronchial lesion score / Degenerative: Bronchiolar lesion score / Fibrosis: Alveolar Septa lesion score / Fibrosis: Peribronchial lesion score / Fibrosis: Peribronchiolar lesion score / Inflammatory: Bronchiolitis lesion score / Inflammatory: Bronchitis lesion score / Inflammatory: Hyaline Membrane lesion score / Inflammatory: Interstitial Pneumonia lesion score / Inflammatory: Vasculitis lesion score / Necrosis: Alveolar lesion score / Necrosis: Bronchial lesion score / Necrosis: Bronchiolar lesion score / Vascular: Alveolar edema lesion score / Vascular: Congestion lesion score / Vascular: Hemorrhage lesion score / Vascular: Interstitial edema lesion score / Vascular: Thrombosis lesion score / TOTAL damage and lesion rating: inhaled 10 min/day for 14 days; for Degenerative: Alveolar lesion score / Degenerative: Bronchial lesion score / Degenerative: Bronchiolar lesion score / Fibrosis: Alveolar Septa lesion score / Fibrosis: Peribronchial lesion score / Fibrosis: Peribronchiolar lesion score / Inflammatory: Bronchiolitis lesion score / Inflammatory: Bronchitis lesion score / Inflammatory: Hyaline Membrane lesion score / Inflammatory: Interstitial Pneumonia lesion score / Inflammatory: Vasculitis lesion score / Necrosis: Alveolar lesion score / Necrosis: Bronchial lesion score / Necrosis: Bronchiolar lesion score / Vascular: Alveolar edema lesion score / Vascular: Congestion lesion score / Vascular: Hemorrhage lesion score / Vascular: Interstitial edema lesion score / Vascular: Thrombosis lesion score: score 0-5; for TOTAL damage and lesion rating: sum of scores
[3] = 75 mg of GA administered orally; cited from earlier work
[4] = system: SARS-CoV; details: culture cells; cited from earlier work
[5] = system: murine respiratory tract tissue; details: mouse, in vivo, 14 days

## CC1(C)[C@@H](O[C@H]2O[C@H](C(=O)O)[C@@H](O)[C@H](O)[C@H]2O[C@@H]2O[C@H](C(=O)O)[C@@H](O)[C@H](O)[C@H]2O)CC[C@]2(C)[C@H]3C(=O)C=C4[C@@H]5C[C@@](C)(C(=O)O)CC[C@]5(C)CC[C@@]4(C)[C@]3(C)CC[C@@H]12 [GA, glycyrrhizic acid]
[1]
  Time of initial peak value: 60 min
[2]; High dosage
  Degenerative: Alveolar lesion score: 0
  Degenerative: Bronchial lesion score: 1
  Degenerative: Bronchiolar lesion score: 1
  Fibrosis: Alveolar Septa lesion score: 0
  Fibrosis: Peribronchial lesion score: 0
  Fibrosis: Peribronchiolar lesion score: 0
  Inflammatory: Bronchiolitis lesion score: 0
  Inflammatory: Bronchitis lesion score: 0
  Inflammatory: Hyaline Membrane lesion score: 0
  Inflammatory: Interstitial Pneumonia lesion score: 3.5
  Inflammatory: Vasculitis lesion score: 0
  Necrosis: Alveolar lesion score: 0
  Necrosis: Bronchial lesion score: 1
  Necrosis: Bronchiolar lesion score: 0
  Vascular: Alveolar edema lesion score: 0
  Vascular: Congestion lesion score: 2
  Vascular: Hemorrhage lesion score: 2
  Vascular: Interstitial edema lesion score: 2
  Vascular: Thrombosis lesion score: 0
  TOTAL damage and lesion rating: 12.5
[2]; Low dosage
  Degenerative: Alveolar lesion score: 0
  Degenerative: Bronchial lesion score: 0.5
  Degenerative: Bronchiolar lesion score: 0.5
  Fibrosis: Alveolar Septa lesion score: 0
  Fibrosis: Peribronchial lesion score: 0
  Fibrosis: Peribronchiolar lesion score: 0
  Inflammatory: Bronchiolitis lesion score: 0
  Inflammatory: Bronchitis lesion score: 0
  Inflammatory: Hyaline Membrane lesion score: 0
  Inflammatory: Interstitial Pneumonia lesion score: 3
  Inflammatory: Vasculitis lesion score: 0
  Necrosis: Alveolar lesion score: 0
  Necrosis: Bronchial lesion score: 0
  Necrosis: Bronchiolar lesion score: 0
  Vascular: Alveolar edema lesion score: 0
  Vascular: Congestion lesion score: 2
  Vascular: Hemorrhage lesion score: 3
  Vascular: Interstitial edema lesion score: 1
  Vascular: Thrombosis lesion score: 0
  TOTAL damage and lesion rating: 10
[2]; increases according to the amount of administered drug
  Effect on basal lesions (in words): generation of additional lesions to the basal lesions
[3]
  EN concentration obtained by oral administration: 200.3 ng/mL
[4]
  Inhibition of SARS-CoV replication: prevented virus replication in culture cells

## CC1(C)[C@@H](O)CC[C@]2(C)[C@H]3C(=O)C=C4[C@@H]5C[C@@](C)(C(=O)O)CC[C@]5(C)CC[C@@]4(C)[C@]3(C)CC[C@@H]12 [EN, 18-β glycyrrhetinic acid]
[5]
  Degenerative: Alveolar lesion score: 0
  Fibrosis: Alveolar Septa lesion score: 0
  Fibrosis: Peribronchial lesion score: 0
  Fibrosis: Peribronchiolar lesion score: 0
  Inflammatory: Bronchiolitis lesion score: 0
  Inflammatory: Bronchitis lesion score: 0
  Inflammatory: Hyaline Membrane lesion score: 0
  Inflammatory: Vasculitis lesion score: 0
  Necrosis: Alveolar lesion score: 0
  Necrosis: Bronchial lesion score: 0
  Necrosis: Bronchiolar lesion score: 0
  Vascular: Alveolar edema lesion score: 0
  Vascular: Congestion lesion score: 2
  Vascular: Hemorrhage lesion score: 1
  Vascular: Thrombosis lesion score: 0
